Source: PubChem BioAssay AID1963828 (Molecular Pharmacology Branch, DTP, NCI, 2024)

System: 991263-137-R1-J2-PDC complex spheroid viability
Assay: Anticancer human tumor 991263-137-R1-J2-PDC patient-derived colon adenocarcinoma cell line growth inhibition [POLQ]
Conditions: for IC50: curve of first compound; for viability, T/C: stronger effect = lower value
In short: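 Growth inhibition in 3D: complex spheroids (tumor PDC, HUVEC, MSC) treated with POLQ inhibitor combinations; where Cmax unknown, highest tested concentration 10 microM, except SN-38 at 1 microM.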

[1] = second compound 0.0316 µM, first compound 0.00316 µM
[2] = second compound 0.0316 µM, first compound 0.01 µM
[3] = second compound 0.0316 µM, first compound 0.0316 µM
[4] = second compound 0.0316 µM, first compound 0.1 µM
[5] = second compound 0.0316 µM, first compound 0.316 µM
[6] = second compound 0.0316 µM, first compound 1 µM
[7] = second compound 0.1 µM, first compound 0.00316 µM
[8] = second compound 0.1 µM, first compound 0.01 µM
[9] = second compound 0.1 µM, first compound 0.0316 µM
[10] = second compound 0.1 µM, first compound 0.1 µM
[11] = second compound 0.1 µM, first compound 0.316 µM
[12] = second compound 0.1 µM, first compound 1 µM
[13] = second compound 0.316 µM, first compound 0.00316 µM
[14] = second compound 0.316 µM, first compound 0.01 µM
[15] = second compound 0.316 µM, first compound 0.0316 µM
[16] = second compound 0.316 µM, first compound 0.1 µM
[17] = second compound 0.316 µM, first compound 0.316 µM
[18] = second compound 0.316 µM, first compound 1 µM
[19] = second compound 1 µM, first compound 0.00316 µM
[20] = second compound 1 µM, first compound 0.01 µM
[21] = second compound 1 µM, first compound 0.0316 µM
[22] = second compound 1 µM, first compound 0.1 µM
[23] = second compound 1 µM, first compound 0.316 µM
[24] = second compound 1 µM, first compound 1 µM
[25] = second compound 3.16 µM, first compound 0.00316 µM
[26] = second compound 3.16 µM, first compound 0.01 µM
[27] = second compound 3.16 µM, first compound 0.0316 µM
[28] = second compound 3.16 µM, first compound 0.1 µM
[29] = second compound 3.16 µM, first compound 0.316 µM
[30] = second compound 3.16 µM, first compound 1 µM
[31] = second compound 10 µM, first compound 0.00316 µM
[32] = second compound 10 µM, first compound 0.01 µM
[33] = second compound 10 µM, first compound 0.0316 µM
[34] = second compound 10 µM, first compound 0.1 µM
[35] = second compound 10 µM, first compound 0.316 µM
[36] = second compound 10 µM, first compound 1 µM
[37] = second compound 0.0316 µM, first compound 3.16 µM
[38] = second compound 0.0316 µM, first compound 10 µM
[39] = second compound 0.1 µM, first compound 3.16 µM
[40] = second compound 0.1 µM, first compound 10 µM
[41] = second compound 0.316 µM, first compound 3.16 µM
[42] = second compound 0.316 µM, first compound 10 µM
[43] = second compound 1 µM, first compound 3.16 µM
[44] = second compound 1 µM, first compound 10 µM
[45] = second compound 3.16 µM, first compound 3.16 µM
[46] = second compound 3.16 µM, first compound 10 µM
[47] = second compound 10 µM, first compound 3.16 µM
[48] = second compound 10 µM, first compound 10 µM
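Also: spheroids exposed to compounds for 7 days before readout.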
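For viability, T/C in this document: 100% = DMSO vehicle control viability.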

SMILES: C=CCn1c(=O)c2cnc(Nc3ccc(N4CCN(C)CC4)cc3)nc2n1-c1cccc(C(C)(C)O)n1 + COC1C(OC(N)=O)C(O)C(Oc2ccc3c(O)c(NC(=O)c4ccc(O)c(CC=C(C)C)c4)c(=O)oc3c2C)OC1(C)C
- IC50 (second compound 0.0316 µM): > 1 µM
- IC50 (second compound 0.1 µM): > 1 µM
- IC50 (second compound 0.316 µM): > 1 µM
- IC50 (second compound 1 µM): > 1 µM
- IC50 (second compound 3.16 µM): > 1 µM
- IC50 (second compound 10 µM): > 1 µM
- viability, T/C [1]: 116%
- viability, T/C [2]: 115%
- viability, T/C [3]: 105%
- viability, T/C [4]: 107%
- viability, T/C [5]: 95.6%
- viability, T/C [6]: 101%
- viability, T/C [7]: 94.2%
- viability, T/C [8]: 109%
- viability, T/C [9]: 91.1%
- viability, T/C [10]: 97%
- viability, T/C [11]: 108%
- viability, T/C [12]: 77.4%
- viability, T/C [13]: 102%
- viability, T/C [14]: 110%
- viability, T/C [15]: 92.6%
- viability, T/C [16]: 97.8%
- viability, T/C [17]: 100%
- viability, T/C [18]: 108%
- viability, T/C [19]: 85.1%
- viability, T/C [20]: 100%
- viability, T/C [21]: 96.8%
- viability, T/C [22]: 98.7%
- viability, T/C [23]: 104%
- viability, T/C [24]: 98%
- viability, T/C [25]: 111%
- viability, T/C [26]: 81.2%
- viability, T/C [27]: 119%
- viability, T/C [28]: 105%
- viability, T/C [29]: 115%
- viability, T/C [30]: 93.4%
- viability, T/C [31]: 98.1%
- viability, T/C [32]: 107%
- viability, T/C [33]: 102%
- viability, T/C [34]: 92.5%
- viability, T/C [35]: 110%
- viability, T/C [36]: 105%

SMILES: CNCc1ccc(-c2[nH]c3cc(F)cc4c3c2CCNC4=O)cc1 + COC1C(OC(N)=O)C(O)C(Oc2ccc3c(O)c(NC(=O)c4ccc(O)c(CC=C(C)C)c4)c(=O)oc3c2C)OC1(C)C
- IC50 (second compound 0.0316 µM): > 10 µM
- IC50 (second compound 0.1 µM): > 10 µM
- IC50 (second compound 0.316 µM): > 10 µM
- IC50 (second compound 1 µM): > 10 µM
- IC50 (second compound 3.16 µM): > 10 µM
- IC50 (second compound 10 µM): > 10 µM
- viability, T/C [3]: 85.7%
- viability, T/C [4]: 101%
- viability, T/C [5]: 94%
- viability, T/C [6]: 97.1%
- viability, T/C [37]: 121%
- viability, T/C [38]: 103%
- viability, T/C [9]: 106%
- viability, T/C [10]: 104%
- viability, T/C [11]: 109%
- viability, T/C [12]: 98.5%
- viability, T/C [39]: 101%
- viability, T/C [40]: 95.9%
- viability, T/C [15]: 105%
- viability, T/C [16]: 91.6%
- viability, T/C [17]: 106%
- viability, T/C [18]: 100%
- viability, T/C [41]: 99.6%
- viability, T/C [42]: 98.5%
- viability, T/C [21]: 82.1%
- viability, T/C [22]: 111%
- viability, T/C [23]: 117%
- viability, T/C [24]: 104%
- viability, T/C [43]: 110%
- viability, T/C [44]: 97.3%
- viability, T/C [27]: 92.2%
- viability, T/C [28]: 112%
- viability, T/C [29]: 111%
- viability, T/C [30]: 106%
- viability, T/C [45]: 119%
- viability, T/C [46]: 102%
- viability, T/C [33]: 107%
- viability, T/C [34]: 110%
- viability, T/C [35]: 105%
- viability, T/C [36]: 102%
- viability, T/C [47]: 119%
- viability, T/C [48]: 106%

SMILES: COc1cccc(OCCCN)c1-c1cc(Nc2cnc(C#N)cn2)n[nH]1 + COC1C(OC(N)=O)C(O)C(Oc2ccc3c(O)c(NC(=O)c4ccc(O)c(CC=C(C)C)c4)c(=O)oc3c2C)OC1(C)C
- IC50 (second compound 0.0316 µM): 0.276 µM
- IC50 (second compound 0.1 µM): 0.421 µM
- IC50 (second compound 0.316 µM): 0.338 µM
- IC50 (second compound 1 µM): 0.459 µM
- IC50 (second compound 3.16 µM): 0.491 µM
- IC50 (second compound 10 µM): 0.513 µM
- viability, T/C [1]: 111%
- viability, T/C [2]: 109%
- viability, T/C [3]: 84.4%
- viability, T/C [4]: 63.6%
- viability, T/C [5]: 52.1%
- viability, T/C [6]: 35.6%
- viability, T/C [7]: 97.3%
- viability, T/C [8]: 89.4%
- viability, T/C [9]: 92.9%
- viability, T/C [10]: 69.2%
- viability, T/C [11]: 59.6%
- viability, T/C [12]: 28.7%
- viability, T/C [13]: 99.3%
- viability, T/C [14]: 104%
- viability, T/C [15]: 102%
- viability, T/C [16]: 77.8%
- viability, T/C [17]: 53.2%
- viability, T/C [18]: 29.6%
- viability, T/C [19]: 111%
- viability, T/C [20]: 80%
- viability, T/C [21]: 80.6%
- viability, T/C [22]: 75.8%
- viability, T/C [23]: 61.4%
- viability, T/C [24]: 33.7%
- viability, T/C [25]: 109%
- viability, T/C [26]: 74.2%
- viability, T/C [27]: 91.9%
- viability, T/C [28]: 87.5%
- viability, T/C [29]: 59.3%
- viability, T/C [30]: 34.8%
- viability, T/C [31]: 75.8%
- viability, T/C [32]: 95.2%
- viability, T/C [33]: 90%
- viability, T/C [34]: 76.9%
- viability, T/C [35]: 59.3%
- viability, T/C [36]: 37.9%

SMILES: O=C(c1cc(Cc2n[nH]c(=O)c3ccccc23)ccc1F)N1CCN(C(=O)C2CC2)CC1 + COC1C(OC(N)=O)C(O)C(Oc2ccc3c(O)c(NC(=O)c4ccc(O)c(CC=C(C)C)c4)c(=O)oc3c2C)OC1(C)C
- IC50 (second compound 0.0316 µM): > 10 µM
- IC50 (second compound 0.1 µM): > 10 µM
- IC50 (second compound 0.316 µM): > 10 µM
- IC50 (second compound 1 µM): > 10 µM
- IC50 (second compound 3.16 µM): > 10 µM
- IC50 (second compound 10 µM): > 10 µM
- viability, T/C [3]: 99.2%
- viability, T/C [4]: 96.8%
- viability, T/C [5]: 90.2%
- viability, T/C [6]: 92.7%
- viability, T/C [37]: 96.9%
- viability, T/C [38]: 95.5%
- viability, T/C [9]: 99.2%
- viability, T/C [10]: 101%
- viability, T/C [11]: 100%
- viability, T/C [12]: 82.1%
- viability, T/C [39]: 85.5%
- viability, T/C [40]: 85.6%
- viability, T/C [15]: 113%
- viability, T/C [16]: 109%
- viability, T/C [17]: 81.6%
- viability, T/C [18]: 92.5%
- viability, T/C [41]: 113%
- viability, T/C [42]: 108%
- viability, T/C [21]: 93.9%
- viability, T/C [22]: 98.1%
- viability, T/C [23]: 78.2%
- viability, T/C [24]: 93.7%
- viability, T/C [43]: 73.5%
- viability, T/C [44]: 101%
- viability, T/C [27]: 94.5%
- viability, T/C [28]: 103%
- viability, T/C [29]: 104%
- viability, T/C [30]: 85%
- viability, T/C [45]: 109%
- viability, T/C [46]: 113%
- viability, T/C [33]: 82.4%
- viability, T/C [34]: 94.7%
- viability, T/C [35]: 106%
- viability, T/C [36]: 78.4%
- viability, T/C [47]: 112%
- viability, T/C [48]: 103%
